We go through 30 molecules from ChEMBL document CHEMBL1201862, “PubChem BioAssay data set” (2004).

SMILES strings stand for the structures. Calls of active or inactive are those of the source. For most assays here, no stated cut-off is given here; in the data, actives have a measured EC50 and inactives only a lower limit.

The target in assay [1] is T1, Rac GTPase-activating protein 1 (Homo sapiens, UniProt Q9H0H5).
T1 sequence (Q9H0H5 whole entry): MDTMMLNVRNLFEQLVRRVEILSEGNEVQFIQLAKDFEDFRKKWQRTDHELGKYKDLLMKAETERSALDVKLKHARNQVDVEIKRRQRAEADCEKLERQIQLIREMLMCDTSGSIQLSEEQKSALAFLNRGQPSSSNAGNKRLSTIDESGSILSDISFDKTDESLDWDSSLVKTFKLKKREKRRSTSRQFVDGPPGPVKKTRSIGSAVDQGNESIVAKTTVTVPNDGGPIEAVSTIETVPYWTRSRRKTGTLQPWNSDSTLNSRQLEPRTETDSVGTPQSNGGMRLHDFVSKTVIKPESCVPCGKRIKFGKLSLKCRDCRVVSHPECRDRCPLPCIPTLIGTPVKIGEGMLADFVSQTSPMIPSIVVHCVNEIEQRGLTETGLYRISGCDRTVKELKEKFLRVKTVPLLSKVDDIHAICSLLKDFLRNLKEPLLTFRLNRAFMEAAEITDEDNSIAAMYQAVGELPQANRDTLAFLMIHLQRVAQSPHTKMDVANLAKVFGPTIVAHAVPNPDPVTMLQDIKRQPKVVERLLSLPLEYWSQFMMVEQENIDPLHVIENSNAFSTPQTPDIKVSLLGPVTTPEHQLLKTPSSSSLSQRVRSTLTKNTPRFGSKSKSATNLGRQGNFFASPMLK
Briefly: blockers of MgcRacGAP-driven Rac1 GTP hydrolysis – biochemical, ADP Hunter fluorescence, primary and confirmatory, confirmation (AID 624330). Type of assay: functional.

Assay [2] deals with FAD-linked sulfhydryl oxidase ALR (Homo sapiens, UniProt P55789). Briefly: ALR-catalysed DTT oxidation blockers – biochemical, H2O2 detection, luminescence, cherry-pick, dose response (AID 493248).
Assay [3] has as its target T2, Heat shock factor protein 1 (Mus musculus, UniProt P38532).
T2 sequence (P38532 whole entry): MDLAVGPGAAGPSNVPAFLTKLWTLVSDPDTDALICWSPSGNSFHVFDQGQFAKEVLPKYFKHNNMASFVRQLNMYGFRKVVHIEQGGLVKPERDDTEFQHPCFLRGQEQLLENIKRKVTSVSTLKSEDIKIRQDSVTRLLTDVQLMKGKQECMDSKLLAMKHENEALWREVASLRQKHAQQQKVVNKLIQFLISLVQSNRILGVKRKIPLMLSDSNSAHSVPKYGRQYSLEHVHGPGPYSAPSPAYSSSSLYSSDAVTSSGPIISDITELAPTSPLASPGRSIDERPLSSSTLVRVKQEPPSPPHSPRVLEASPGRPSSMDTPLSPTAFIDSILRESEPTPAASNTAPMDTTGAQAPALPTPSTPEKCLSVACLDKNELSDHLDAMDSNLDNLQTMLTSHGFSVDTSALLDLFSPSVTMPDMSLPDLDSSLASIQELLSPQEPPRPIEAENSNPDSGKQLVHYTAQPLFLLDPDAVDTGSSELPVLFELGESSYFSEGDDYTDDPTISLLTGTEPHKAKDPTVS
Briefly: decrease of HSF1-responsive luciferase luminescence – cell-based, NIH3T3, dose retest, confirmation (AID 2382).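 Further: NIH3T3 fibroblasts with HSF1-driven luciferase reporter stressed by proteasome inhibitor MG132; luminescence from HSF1-driven luciferase expression after 8 hours of MG132 stress.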 Type of assay: functional.

Assay [4] can be described thus: Luminescence Cell-Based Dose Response HTS to Identify Inhibitors of 5'UTR Stem-Loop Driven Prion Protein mRNA Translation in H4 Neuroglioblastoma Cells. [Related pubchem assays: 1827 (Project Summary), 1813 (Primary HTS)]. Format: functional.
Assay [5] in a line: luciferase reporter signal suppression in cells – H4 neuroglioma cells, luminescence, dose response (AID 1990). Format: functional, cell-based.
Assay [6] is described as follows: alpha-synuclein stem-loop luciferase translation blockers – H4 neuroglioma cells, luminescence, confirmation (AID 1988). Format: functional, cell-based.
A further assay has as its system Streptococcus. Nature of the assay: GAS UMAA2166 growth inhibition – luminescence, BacTiterGlo, counter-screen for streptokinase expression inhibitor project, dose response (AID 1915).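 Further: potency for reduction of bacterial viability or growth.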 Format: functional, organism-based.
For another assay, the target named is T3, Streptokinase A (Streptococcus pyogenes serotype M1, UniProt P10520).
T3 sequence (P10520 whole entry): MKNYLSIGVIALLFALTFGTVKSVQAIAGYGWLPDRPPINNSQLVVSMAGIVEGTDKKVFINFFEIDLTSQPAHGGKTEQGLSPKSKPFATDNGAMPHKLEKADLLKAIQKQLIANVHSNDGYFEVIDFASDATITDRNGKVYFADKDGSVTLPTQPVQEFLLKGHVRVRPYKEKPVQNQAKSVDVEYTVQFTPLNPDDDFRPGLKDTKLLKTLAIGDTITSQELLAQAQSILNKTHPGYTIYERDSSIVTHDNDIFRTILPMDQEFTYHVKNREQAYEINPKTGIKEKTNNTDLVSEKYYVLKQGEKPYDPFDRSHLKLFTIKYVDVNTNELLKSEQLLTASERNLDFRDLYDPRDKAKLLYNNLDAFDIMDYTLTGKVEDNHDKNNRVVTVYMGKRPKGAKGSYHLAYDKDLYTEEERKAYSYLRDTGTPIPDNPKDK
Briefly: viability-normalized secreted streptokinase activity reduction – plasminogen activation absorbance, OD405, dose response (AID 1914).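 Further: secreted streptokinase activity via plasminogen activation per viability signal from cell pellet.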 Format: functional, Streptococcus pyogenes M1 GAS.

Assay [7] concerns Streptococcus sp. 'group A'. Briefly: Streptococcus pyogenes SK(-)GAS viability under kanamycin – luminescence, BacTiterGlo, confirmation, counter-screen for streptokinase expression inhibitor project, dose response (AID 1900). Type of assay: functional, organism-based. For orientation: A counterscreen serves to expose hits that act by an unwanted route or on another target.
A further assay deals with T4, Cytochrome P450 1A2 (Homo sapiens, UniProt P05177).
T4 sequence (P05177 whole entry): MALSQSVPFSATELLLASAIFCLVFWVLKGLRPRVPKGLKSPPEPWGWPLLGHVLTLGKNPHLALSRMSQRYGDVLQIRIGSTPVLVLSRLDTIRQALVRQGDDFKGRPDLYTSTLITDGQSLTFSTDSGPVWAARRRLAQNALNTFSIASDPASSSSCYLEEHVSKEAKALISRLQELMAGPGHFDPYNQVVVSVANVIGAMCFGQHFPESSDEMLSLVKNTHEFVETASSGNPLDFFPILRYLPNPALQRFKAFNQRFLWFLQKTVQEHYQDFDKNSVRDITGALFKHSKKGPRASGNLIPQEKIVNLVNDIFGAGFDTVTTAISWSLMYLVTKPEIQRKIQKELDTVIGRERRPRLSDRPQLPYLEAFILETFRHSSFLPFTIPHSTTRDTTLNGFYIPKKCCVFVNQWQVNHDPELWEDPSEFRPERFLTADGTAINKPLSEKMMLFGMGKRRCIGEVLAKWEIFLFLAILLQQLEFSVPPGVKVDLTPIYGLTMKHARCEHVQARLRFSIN

A short description of assay [8]: NIH3T3 cell viability loss – ATP luminescence, mouse fibroblasts, counter-screen, dose response (AID 2010).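 Further: cells exposed to compound for about 90 hours before reading.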 Format: functional, cell-based.
Assay [9] is described as follows: Trypanosoma cruzi growth suppression in host cells – NIH3T3 host cells, beta-gal luminescence, confirmation (AID 2044).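 Further: intracellular parasites grown in NIH/3T3 mouse fibroblasts as host cells; luminescent beta-galactosidase reporter signal from transgenic T. cruzi replicating inside host cells; inhibitors lower the luminescence signal.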 Type of assay: functional, cell-based.
In assay [10] the target is T5, Corticotropin-releasing factor receptor 2/Corticotropin-releasing factor-binding protein (Homo sapiens, UniProt P24387+Q13324).
T5 sequence (Q13324 whole entry): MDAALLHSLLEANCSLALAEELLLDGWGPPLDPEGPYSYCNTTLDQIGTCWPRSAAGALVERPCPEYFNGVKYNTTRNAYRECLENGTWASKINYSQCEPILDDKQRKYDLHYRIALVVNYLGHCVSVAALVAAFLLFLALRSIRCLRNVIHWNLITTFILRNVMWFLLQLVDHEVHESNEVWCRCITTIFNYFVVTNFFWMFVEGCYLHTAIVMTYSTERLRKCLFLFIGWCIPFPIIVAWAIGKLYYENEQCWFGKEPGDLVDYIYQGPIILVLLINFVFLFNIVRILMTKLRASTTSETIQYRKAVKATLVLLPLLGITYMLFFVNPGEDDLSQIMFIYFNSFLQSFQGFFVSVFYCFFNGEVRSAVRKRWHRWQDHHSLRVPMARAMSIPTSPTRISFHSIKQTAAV
T5 sequence (P24387 whole entry): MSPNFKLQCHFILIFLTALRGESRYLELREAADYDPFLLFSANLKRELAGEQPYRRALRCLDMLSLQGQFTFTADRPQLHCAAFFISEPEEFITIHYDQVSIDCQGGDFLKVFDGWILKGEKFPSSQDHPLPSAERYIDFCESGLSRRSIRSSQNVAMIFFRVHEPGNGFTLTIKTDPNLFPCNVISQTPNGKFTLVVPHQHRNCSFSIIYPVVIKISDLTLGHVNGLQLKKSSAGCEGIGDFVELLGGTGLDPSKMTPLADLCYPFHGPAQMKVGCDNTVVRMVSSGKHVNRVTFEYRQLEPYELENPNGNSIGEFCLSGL
Briefly: activators of CRF receptor 2 with binding protein – uHTS hits, confirmation (AID 602473). Type of assay: functional. The settings on record: read-out: EC50_Mean.

A further assay deals with Large T antigen (Simian virus 40, UniProt P03070). Type of assay: functional, Betapolyomavirus macacae.
Large T antigen, sequence (P03070 whole entry): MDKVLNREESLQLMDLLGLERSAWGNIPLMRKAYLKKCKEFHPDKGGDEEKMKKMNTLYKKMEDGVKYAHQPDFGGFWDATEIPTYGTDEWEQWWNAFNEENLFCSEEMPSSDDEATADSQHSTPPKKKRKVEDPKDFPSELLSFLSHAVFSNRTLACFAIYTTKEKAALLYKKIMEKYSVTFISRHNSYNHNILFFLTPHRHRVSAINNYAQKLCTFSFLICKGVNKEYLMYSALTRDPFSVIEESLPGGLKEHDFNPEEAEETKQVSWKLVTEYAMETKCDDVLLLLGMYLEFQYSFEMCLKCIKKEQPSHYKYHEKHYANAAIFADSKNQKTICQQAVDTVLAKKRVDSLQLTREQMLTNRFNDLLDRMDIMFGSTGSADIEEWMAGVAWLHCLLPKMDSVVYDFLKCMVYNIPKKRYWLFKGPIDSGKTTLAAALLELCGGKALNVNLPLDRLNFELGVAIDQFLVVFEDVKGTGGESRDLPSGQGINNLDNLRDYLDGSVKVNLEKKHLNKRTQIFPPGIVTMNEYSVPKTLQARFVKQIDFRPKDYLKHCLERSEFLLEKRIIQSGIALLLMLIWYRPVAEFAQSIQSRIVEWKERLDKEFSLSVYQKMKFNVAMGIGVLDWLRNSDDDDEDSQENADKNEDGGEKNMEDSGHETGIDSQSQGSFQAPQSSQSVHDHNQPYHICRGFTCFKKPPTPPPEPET

FAD-linked sulfhydryl oxidase ALR, sequence (P55789 whole entry): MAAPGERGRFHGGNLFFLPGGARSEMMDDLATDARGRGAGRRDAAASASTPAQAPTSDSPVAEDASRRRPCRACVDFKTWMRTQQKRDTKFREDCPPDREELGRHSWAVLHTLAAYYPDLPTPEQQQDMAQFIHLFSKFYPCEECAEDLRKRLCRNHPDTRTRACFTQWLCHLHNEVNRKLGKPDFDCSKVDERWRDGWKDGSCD

Broadly, the IC50 is the point on the concentration scale where inhibition reaches its midpoint. `O=C(CN1CCN(c2ccc(O)cc2)CC1)NC(=O)NCc1ccco1`: in [1], the IC50 is 52.6 µM (active).
For orientation: AC50 means the midpoint of the concentration-response curve, whichever way the signal moves. In the case of `CNc1nnc(-c2cccc(N(C)C)c2)s1`, the AC50 in assay [2] was 0.046 µM (active).
As to `COc1ccc(NC(S)=Nc2ccc(Oc3ccccc3)cc2)cc1`, in [3], the EC50 is on record as > 195 µM (not active).
Turning to `O=C(O)c1ccccc1C(=O)Nc1ccc(Nc2ccc([N+](=O)[O-])cc2[N+](=O)[O-])cc1`, the AC50 in [2] was 3.88 µM (active).
On to `Cc1nnsc1-c1c(C(=O)Oc2ccccc2)c(C)nn1-c1ccccc1`, for which the EC50 in assay [4] was > 120 µM (not active); in assay [5], 18.8 µM (active); in assay [6] it was 19.8 µM (active).
With `NC1=NC(c2c[nH]nc2-c2cccc(F)c2)n2c(nc3ccccc32)N1` (configuration not stated), the EC50 in assay [3] is 27.5 µM (active).
As to `Cc1ccccc1OCC(=O)NC(=S)Nc1ccc(Br)c(C)n1`, the EC50 is 21 µM (active) in [4]; > 150 µM (not active) in the assay on Streptococcus; 25.1 µM (active) in assay [5]; 14.2 µM (active) in assay [6]; 57.1 µM (active) at Streptokinase A; > 150 µM (not active) in assay [7]. In addition, the AC50 on Cytochrome P450 1A2 is 3.16 µM (inconclusive).
Take `Cc1ccc(CN2CC(C(=O)Nc3ccc(C)cn3)CC2=O)cc1` (configuration not stated): the EC50 in assay [3] is > 195 µM (not active).
Take `Cc1cc(-c2cc(C)c(N)c(C)c2)cc(C)c1N`: the IC50 in [1] is 10.8 µM (active).
With `O=C(Nc1ncc(S(=O)(=O)c2ccc([N+](=O)[O-])cc2)s1)c1cccc2ccccc12`, the EC50 is > 60 µM (not active) in [8], 221 nM (active) in [9] and 4.23 µM (active) in assay [10].
For `COc1ccc(/C=N/NC(=O)c2cc(-c3cccn3C)[nH]n2)cc1OC`, the EC50 in [3] is > 195 µM (not active).
Take `CC(C)CC(NC(=O)c1ccccc1)C(=O)N/N=C/c1ccco1` (configuration not stated): the EC50 in [10] is 4.81 µM (active).
`Cc1cc(NC(=O)c2cccnc2)ccc1NC(=O)c1cc2ccccc2o1`: the EC50 in assay [4] was 17.7 µM (active); in [5], 18.6 µM (active); in assay [6], 20.6 µM (active).
For `Cc1cc(C(=O)N2CCCC(Nc3ccccc3)C2)c2ccc(F)cc2n1` (configuration not stated), the AC50 in assay [2] was 2.24 µM (active).
Still for that read-out and setting: then `CN(C)c1ccc(-c2nnc(S)n2-c2ccccc2)cc1`, with 64.6 µM (active).
In the case of `O=C(NN=C1CCCCCCCCCCC1)c1ccccc1F`, in assay [3], the EC50 is on record as > 195 µM (not active).
Regarding `Cn1cc(CCNC(=O)CC2C(=O)NCCN2Cc2cccc(Oc3ccccc3)c2)cn1` (configuration not stated), the EC50 in [3] is given as > 195 µM (not active).
With `Nc1ccc(Nc2ccccc2)c(Cl)c1`, the 50% inhibitory concentration (IC50) in assay [1] was 17.3 µM (active).
Still for that read-out and setting: the result for `O=C(NCCNCC(O)COc1ccc(O)cc1)N1CCOCC1` (configuration not stated) reads 118 µM (active).
Regarding `OCC1CCCN(C(=S)Nc2ccc(Nc3ccccc3)cc2)C1` (configuration not stated), the IC50 was 41.8 µM (active) in assay [1] and 8.16 µM (active) at Large T antigen.
Regarding `CC(C)C(=O)Nc1ccc2c(c1)nc1n2CCSC1`, in assay [2], the AC50 was 0.245 µM (active).
As for `COc1ccc(CCNC(=O)CN2CCN(Cc3ccccc3F)C2=O)cc1OC`, the EC50 in assay [3] is > 195 µM (not active).
Turning to `CN(C)c1ccc(CNS(=O)(=O)c2ccc3c(c2)NC(=O)CS3)cc1`, in assay [2], the AC50 is 7.37 µM (active).
Regarding `COc1ccc(-c2cc3ccc(OCc4nn[nH]n4)cc3oc2=O)cc1`, the EC50 in [4] was 14.6 µM (active); in [5], 13.9 µM (active); in assay [6] it was 13.3 µM (active).
With `Clc1ccccc1CNCc1ccc2c(c1)OCO2`, the half-maximal inhibitory concentration (IC50) in assay [1] was 257 µM (active).
`Nc1ccc(N=Nc2ccc(N)cc2)cc1`: the IC50 in assay [1] was 22 µM (active).
Same read-out and setting: then `O=c1c2ccccc2nc(/C=C/c2ccc(O)cc2)n1-c1ccccc1O`, with 62.5 µM (active).
Turning to `COc1ccc(NCc2ccc(OC)c(Cn3ccnc3)c2)c(OC)c1`, the concentration at half-maximal activity (AC50) in [2] was 1.76 µM (active). Further, the EC50 in [8] is > 60 µM (not active); in assay [9] it was 588 nM (active).
Take `CCOC(=O)c1ccc(NCn2c(=O)oc3ccccc32)cc1`: in [10], the EC50 was > 53 µM (inactive).
As for `CCN(CC)S(=O)(=O)c1cccc(NC(=O)CNC2CCCCCC2)c1`, in assay [1], the IC50 was 185 µM (active).
